This note sets out measurements from BindingDB's records for doi:10.1021/jm00145a017 (1985).

Each structure is given as a SMILES string.

The assay can be described thus: Intrinsic affinity towards serotonin receptor from rat frontal cortex by displacement of [3H]spiperone. In general terms: Loss of bound radioactivity is the signal in a displacement assay; it reports binding, not function.

With `FC(F)(F)c1ccc2c(c1)N1CCNCC1CC2` (stereo not drawn) [9-Trifluoromethyl-2,3,4,4a,5,6-hexahydro-1H-pyrazino[1,2-a]quinoline], the Ki was found to be 136 nM.
In the case of `Clc1cncc(N2CCNCC2)n1` [L-630,571] it was 6000 nM.
In the case of `FC(F)(F)c1cccc(N2CCNCC2)c1` [TFMPP] it was 298 nM.

Broadly, the Ki is the dissociation constant of the complex between target and ligand, obtained from inhibition or displacement. A lower Ki goes with a stronger hold on the target.
